Among the data in patent publication US10280159B2 (AbbVie Deutschland GmbH & Co. KG, priority 2015, dated 2019) are EC50 values, retold here.

What all share (format): cell-based
One experiment addresses T1, human S1PR4 (Homo sapiens, UniProt O95977).
T1 construct: host or cells: CHO-K1
T1 sequence (O95977 1-384): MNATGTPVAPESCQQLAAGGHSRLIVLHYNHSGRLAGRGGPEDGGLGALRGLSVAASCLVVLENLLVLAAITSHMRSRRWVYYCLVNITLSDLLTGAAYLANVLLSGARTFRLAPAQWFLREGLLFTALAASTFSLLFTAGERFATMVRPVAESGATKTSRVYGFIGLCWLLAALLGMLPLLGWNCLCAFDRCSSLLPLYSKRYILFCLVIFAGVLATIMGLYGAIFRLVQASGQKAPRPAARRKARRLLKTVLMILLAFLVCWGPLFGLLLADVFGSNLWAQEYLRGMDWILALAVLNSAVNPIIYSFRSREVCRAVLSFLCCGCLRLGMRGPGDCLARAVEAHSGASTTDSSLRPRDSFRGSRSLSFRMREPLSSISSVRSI
In words: Intracellular Ca2+ release (FLIPR) agonist potency, S1P4. The conditions noted are these: recombinant CHO-K1 cells expressing human S1PR4, aequorin, Gq/i5; Calcium 5 FLIPR; read-out: S1P4 EC50. How it is done:
(§1) Agonistic activity was measured using the method described below.
(§2) Intracellular Ca^2+ Release
(§3) Agonist potency and intrinsic activity was assessed by measurement of intracellular Ca^2+ release. Recombinant CHO-K1 cells (Euroscreen, Brussels, Belgium) expressing human S1PR5, S1PR1, S1PR3 or S1PR4 receptors, aequorin, and GTP binding protein Gq/i5 were cultured using a medium containing nutrient mixture F-12 Ham (Sigma-Aldrich) with 10% FBS, and 100 μg/mL gentamicin and equilibrated at 5% CO2.
(§4) Phospho-fingolimod was used as positive control. Antagonists were pre-incubated for 10 min with cells before addition of the agonist (phospho-fingolimod at EC80). Measurements were performed using a fluorometric imaging plate reader FLIPR®tetra (Molecular Devices). Agonist at the human S1P receptors were characterized by deducing EC50 (potency) values from a nonlinear fit to the measured fluorescence raw data after normalization to the reference agonist (phospho-fingolimod) curve.

A further experiment deals with T2, human S1PR1 (Homo sapiens, UniProt P21453).
T2 construct: host or cells: CHO-K1
The experiment is described as follows: Intracellular Ca2+ release (FLIPR) agonist potency, S1P1. The conditions noted are these: recombinant CHO-K1 cells expressing human S1PR1, aequorin, Gq/i5; Calcium 5 FLIPR; read-out: S1P1 EC50. As to the method: as §1, §2, §3, §4

A further experiment deals with T3, human S1PR5 (Homo sapiens, UniProt Q9H228).
T3 construct: host or cells: CHO-K1
In words: Intracellular Ca2+ release (FLIPR) agonist potency, S1P5. The conditions noted are these: recombinant CHO-K1 cells expressing human S1PR5, aequorin, Gq/i5; Calcium 5 FLIPR; read-out: S1P5 EC50 range. How it is done:
as §1, §2, §3, §4

pEC50: −log10 of the molar value.

T2 sequence (P21453 whole entry): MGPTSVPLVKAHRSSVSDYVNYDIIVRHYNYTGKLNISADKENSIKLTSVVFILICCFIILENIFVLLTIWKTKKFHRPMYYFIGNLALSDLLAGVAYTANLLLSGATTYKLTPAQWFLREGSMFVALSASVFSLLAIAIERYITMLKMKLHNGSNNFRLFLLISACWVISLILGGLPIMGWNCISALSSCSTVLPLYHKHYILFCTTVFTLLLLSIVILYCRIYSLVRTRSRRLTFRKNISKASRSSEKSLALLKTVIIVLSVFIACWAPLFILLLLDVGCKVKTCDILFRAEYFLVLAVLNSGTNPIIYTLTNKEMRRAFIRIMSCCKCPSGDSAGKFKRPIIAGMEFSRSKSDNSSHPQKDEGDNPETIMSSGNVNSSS
T3 sequence (Q9H228 whole entry): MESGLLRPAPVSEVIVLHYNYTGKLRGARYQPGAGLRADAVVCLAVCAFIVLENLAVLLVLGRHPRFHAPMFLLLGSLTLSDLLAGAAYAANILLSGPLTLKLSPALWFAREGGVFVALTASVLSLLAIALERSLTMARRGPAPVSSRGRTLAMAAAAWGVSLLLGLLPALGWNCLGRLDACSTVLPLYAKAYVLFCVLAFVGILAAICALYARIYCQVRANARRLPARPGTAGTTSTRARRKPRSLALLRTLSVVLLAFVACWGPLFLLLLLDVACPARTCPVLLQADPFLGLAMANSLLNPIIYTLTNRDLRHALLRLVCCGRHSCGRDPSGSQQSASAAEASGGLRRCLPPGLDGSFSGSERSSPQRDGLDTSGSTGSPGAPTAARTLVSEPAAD

Take `O=C(O)C1CN(C2COc3cc(OCc4cc(Cl)ccc4Cl)ccc3C2)C1` (stereo not drawn) [Compound 52, 1-(7-((2,5-dichlorobenzyl)oxy)chroman-3-yl)azetidine-3-carboxylic acid]: the pEC50 at human S1PR4 was under 6.00; at human S1PR1, under 6.00; at human S1PR5 it was 5.00 to 6.00.
As to `Cc1cccc(F)c1COc1ccc2c(c1)OCC(N1CC(C(=O)O)C1)C2` (stereo not drawn) [Compound 53, 1-(7-((2-fluoro-6-methylbenzyl)oxy)chroman-3-yl)azetidine-3-carboxylic acid], the pEC50 at human S1PR4 was under 6.00; on human S1PR1 it was under 6.00; at human S1PR5, 6.00 to 7.00.
Take `O=C(O)C1CN(C2COc3cc(OCc4ccc(C(F)(F)F)cc4)ccc3C2)C1` (stereo not drawn) [Compound 57, 1-(7-((4-(trifluoromethyl)benzyl)oxy)chroman-3-yl)azetidine-3-carboxylic acid]: the pEC50 was under 6.00 at human S1PR4, under 6.00 at human S1PR1 and 5.00 to 6.00 on human S1PR5.
Consider `Cc1cccc(COc2ccc3c(c2)OCC(N2CC(C(=O)O)C2)C3)c1` (stereo not drawn) [Compound 58, 1-(7-((3-methylbenzyl)oxy)chroman-3-yl)azetidine-3-carboxylic acid], for which the pEC50 on human S1PR4 was under 6.00; on human S1PR1, under 6.00; at human S1PR5, 5.00 to 6.00.
As for `O=C(O)C1CN(C2COc3cc(OCc4cccc(C(F)(F)F)c4)ccc3C2)C1` (stereo not drawn) [Compound 59, 1-(7-((3-(trifluoromethyl)benzyl)oxy)chroman-3-yl)azetidine-3-carboxylic acid], the pEC50 was over 6.00 on human S1PR4, under 6.00 on human S1PR1 and 6.00 to 7.00 at human S1PR5.
On the same counts, the results for `O=C(O)C1CN(C2COc3cc(OCc4c(F)cccc4Cl)ccc3C2)C1` (stereo not drawn) [Compound 61, 1-(7-((2-chloro-6-fluorobenzyl)oxy)chroman-3-yl)azetidine-3-carboxylic acid] are under 6.00, under 6.00 and 6.00 to 7.00.
On to `O=C(O)C1CN(C2COc3cc(OCc4ccccc4C(F)(F)F)ccc3C2)C1` (stereo not drawn) [Compound 62, 1-(7-((2-(trifluoromethyl)benzyl)oxy)chroman-3-yl)azetidine-3-carboxylic acid], for which the results for the pEC50 at human S1PR4, on human S1PR1 and at human S1PR5 were under 6.00, under 6.00 and 7.00 to 8.00, respectively.
For `O=C(O)C1CN(C2COc3cc(OCc4ccccc4Cl)ccc3C2)C1` (stereo not drawn) [Compound 63, 1-(7-((2-chlorobenzyl)oxy)chroman-3-yl)azetidine-3-carboxylic acid], the figures for the pEC50 on human S1PR4, on human S1PR1 and at human S1PR5 were under 6.00, under 6.00 and 6.00 to 7.00, respectively.
Turning to `Cc1cccc(Cl)c1COc1ccc2c(c1)OCC(N1CC(C(=O)O)C1)C2` (stereo not drawn) [Compound 71, 1-(7-((2-chloro-6-methylbenzyl)oxy)chroman-3-yl)azetidine-3-carboxylic acid], the results for the pEC50 at human S1PR4, at human S1PR1 and at human S1PR5 were under 6.00, under 6.00 and 6.00 to 7.00, respectively.
Turning to `CCc1cccc(F)c1COc1ccc2c(c1)OCC(N(C)CC(=O)O)C2` (stereo not drawn) [Compound 72, 2-((7-((2-ethyl-6-fluorobenzyl)oxy)chroman-3-yl)(methyl)amino)acetic acid], the pEC50 at human S1PR4 was over 6.00; on human S1PR1, under 6.00; at human S1PR5, over 8.00.
The matching figures for `CCc1cccc(Cl)c1COc1ccc2c(c1)CCC(NCC1(C(=O)O)CC1)C2` (stereo not drawn) [Compound 76, 1-(((6-((2-chloro-6-ethylbenzyl)oxy)-1,2,3,4-tetrahydronaphthalen-2-yl)amino)methyl)cyclopropanecarboxylic acid]: over 6.00, over 6.00 and over 8.00.
On the same counts, the results for `Cc1cc(COc2ccc3c(c2)OCC(N2CC(C(=O)O)C2)C3)ccc1F` (stereo not drawn) [Compound 84, 1-[7-[(4-fluoro-3-methyl-phenyl)methoxy]chroman-3-yl]azetidine-3-carboxylic acid] are under 6.00, under 6.00 and 5.00 to 6.00.
Regarding `O=C(O)C1CN(C2COc3cc(OCc4ccc(F)c(C(F)(F)F)c4)ccc3C2)C1` (stereo not drawn) [Compound 85, 1-[7-[[4-fluoro-3-(trifluoromethyl)phenyl]methoxy]chroman-3-yl]azetidine-3-carboxylic acid], the pEC50 at human S1PR4 was under 6.00; at human S1PR1, under 6.00; on human S1PR5, 5.00 to 6.00.
Take `COc1cccc(COc2ccc3c(c2)OCC(N2CC(C(=O)O)C2)C3)c1F` (stereo not drawn) [Compound 86, 1-[7-[(2-fluoro-3-methoxy-phenyl)methoxy]chroman-3-yl]azetidine-3-carboxylic acid]: the pEC50 at human S1PR4 was under 6.00; at human S1PR1, under 6.00; at human S1PR5, 5.00 to 6.00.
Take `Cc1cc(F)cc(COc2ccc3c(c2)OCC(N2CC(C(=O)O)C2)C3)c1` (stereo not drawn) [Compound 87, 1-[7-[(3-fluoro-5-methyl-phenyl)methoxy]chroman-3-yl]azetidine-3-carboxylic acid]: the values for the pEC50 at human S1PR4, at human S1PR1 and at human S1PR5 were under 6.00, under 6.00 and 5.00 to 6.00, respectively.
As to `Cc1ccc(COc2ccc3c(c2)OCC(N2CC(C(=O)O)C2)C3)c(F)c1` (stereo not drawn) [Compound 88, 1-[7-[(2-fluoro-4-methyl-phenyl)methoxy]chroman-3-yl]azetidine-3-carboxylic acid], the pEC50 on human S1PR4 was under 6.00; on human S1PR1, under 6.00; at human S1PR5, 5.00 to 6.00.
For the compound `N#Cc1ccc(COc2ccc3c(c2)OCC(N2CC(C(=O)O)C2)C3)c(F)c1` (stereo not drawn) [Compound 89, 1-[7-[(4-cyano-2-fluoro-phenyl)methoxy]chroman-3-yl]azetidine-3-carboxylic acid], the results for the pEC50 at human S1PR4, on human S1PR1 and on human S1PR5 were under 6.00, under 6.00 and 5.00 to 6.00, respectively.
As to `O=C(O)C1CN(C2COc3cc(OCc4cc(F)cc(C(F)(F)F)c4)ccc3C2)C1` (stereo not drawn) [Compound 90, 1-[7-[[3-fluoro-5-(trifluoromethyl)phenyl]methoxy]chroman-3-yl]azetidine-3-carboxylic acid], the figures for the negative-log EC50 (pEC50) on human S1PR4, on human S1PR1 and on human S1PR5 were over 6.00, under 6.00 and 7.00 to 8.00, respectively.
Turning to `O=C(O)C1CN(C2COc3cc(OCc4cc(F)ccc4C(F)(F)F)ccc3C2)C1` (stereo not drawn) [Compound 91, 1-[7-[[5-fluoro-2-(trifluoromethyl)phenyl]methoxy]chroman-3-yl]azetidine-3-carboxylic acid], the pEC50 at human S1PR4 is under 6.00; at human S1PR1 it was under 6.00; on human S1PR5 it was 6.00 to 7.00.
In the case of `COc1cc(COc2ccc3c(c2)OCC(N2CC(C(=O)O)C2)C3)ccc1F` (stereo not drawn) [Compound 92, 1-[7-[(4-fluoro-3-methoxy-phenyl)methoxy]chroman-3-yl]azetidine-3-carboxylic acid], the values for the pEC50 at human S1PR4, on human S1PR1 and on human S1PR5 were under 6.00, under 6.00 and 5.00 to 6.00, respectively.
As to `O=C(O)C1CN(C2COc3cc(OCCOc4ccc(F)cc4)ccc3C2)C1` (stereo not drawn) [Compound 93, 1-[7-[2-(4-fluorophenoxy)ethoxy]chroman-3-yl]azetidine-3-carboxylic acid], the negative logarithm of the EC50 (pEC50) at human S1PR4 was under 6.00; on human S1PR1, under 6.00; at human S1PR5, 5.00 to 6.00.
Take `O=C(O)C1CN(C2COc3cc(OCc4cccc(C(F)(F)F)c4F)ccc3C2)C1` (stereo not drawn) [Compound 94, 1-[7-[[2-fluoro-3-(trifluoromethyl)phenyl]methoxy]chroman-3-yl]azetidine-3-carboxylic acid]: the pEC50 on human S1PR4 was under 6.00; at human S1PR1 it was under 6.00; at human S1PR5 it was 5.00 to 6.00.
Consider `COc1ccc(COc2ccc3c(c2)OCC(N2CC(C(=O)O)C2)C3)cc1F` (stereo not drawn) [Compound 95, 1-[7-[(3-fluoro-4-methoxy-phenyl)methoxy]chroman-3-yl]azetidine-3-carboxylic acid], for which the pEC50 on human S1PR4 was under 6.00; at human S1PR1 it was under 6.00; at human S1PR5, 5.00 to 6.00.
With `Cc1c(F)cccc1COc1ccc2c(c1)OCC(N1CC(C(=O)O)C1)C2` (stereo not drawn) [Compound 96, 1-[7-[(3-fluoro-2-methyl-phenyl)methoxy]chroman-3-yl]azetidine-3-carboxylic acid], the results for the pEC50 on human S1PR4, on human S1PR1 and at human S1PR5 were under 6.00, under 6.00 and 6.00 to 7.00, respectively.
Take `O=C(O)C1CN(C2COc3cc(OCCOc4cccc(F)c4)ccc3C2)C1` (stereo not drawn) [Compound 97, 1-[7-[2-(3-fluorophenoxy)ethoxy]chroman-3-yl]azetidine-3-carboxylic acid]: the figures for the pEC50 at human S1PR4, at human S1PR1 and on human S1PR5 were under 6.00, under 6.00 and 5.00 to 6.00, respectively.
On to `COc1ccc(F)c(COc2ccc3c(c2)OCC(N2CC(C(=O)O)C2)C3)c1` (stereo not drawn) [Compound 98, 1-[7-[(2-fluoro-5-methoxy-phenyl)methoxy]chroman-3-yl]azetidine-3-carboxylic acid], for which the pEC50 on human S1PR4 was under 6.00; at human S1PR1, under 6.00; at human S1PR5 it was 5.00 to 6.00.
